The values that follow come from article PMC5436585 (ACS chemical biology, 2016).

This test deals with T1, SltB3 (Pseudomonas aeruginosa, UniProt Q9HX28).
T1 sequence (Q9HX28 33-448): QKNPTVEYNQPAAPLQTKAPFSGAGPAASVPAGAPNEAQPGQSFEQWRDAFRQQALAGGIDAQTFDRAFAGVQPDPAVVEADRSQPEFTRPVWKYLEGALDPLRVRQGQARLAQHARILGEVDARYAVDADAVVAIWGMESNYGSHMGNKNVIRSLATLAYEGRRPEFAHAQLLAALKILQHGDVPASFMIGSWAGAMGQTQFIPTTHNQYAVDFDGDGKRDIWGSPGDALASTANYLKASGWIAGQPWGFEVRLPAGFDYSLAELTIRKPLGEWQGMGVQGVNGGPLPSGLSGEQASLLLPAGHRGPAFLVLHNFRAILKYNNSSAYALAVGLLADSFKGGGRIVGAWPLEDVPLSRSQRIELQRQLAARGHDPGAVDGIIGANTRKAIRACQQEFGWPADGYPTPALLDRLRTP
The test is described as follows: LC/MS product quantification, nonlinear regression. In kind it is biochemical. Conditions: 20 mM HEPES, 0.1 M NaCl, 0.1% Triton X, pH 7.0, 25 °C; 8 nM enzyme.

What is called Km is the substrate concentration at which the rate is half of its maximum. In the case of `CO[C@@H]1O[C@H](CO)[C@@H](O[C@@H]2O[C@H](CO)[C@@H](O[C@@H]3O[C@H](CO)[C@@H](O[C@@H]4O[C@H](CO)[C@@H](O)[C@H](O)[C@H]4NC(C)=O)[C@H](O[C@H](C)C(=O)N[C@@H](C)C(=O)N[C@H](CCC(=O)N[C@@H](CCC[C@@H](N)C(=O)O)C(=O)N[C@H](C)C(=O)N[C@H](C)C(=O)O)C(=O)O)[C@H]3NC(C)=O)[C@H](O)[C@H]2NC(C)=O)[C@H](O[C@H](C)C(=O)N[C@@H](C)C(=O)N[C@H](CCC(=O)N[C@@H](CCC[C@@H](N)C(=O)O)C(=O)N[C@H](C)C(=O)N[C@H](C)C(=O)O)C(=O)O)[C@H]1NC(C)=O` [compound 1], the Km amounted to 200 ± 20 µM.
